Consider 10 compounds from patent US11512054B2, “Pesticidal compounds” (BASF SE, priority 2017, dated 2022).

Holding throughout (format): in vivo
The test system of assay [1] is tobacco budworm (Heliothis virescens). Nature of the assay: Action on tobacco budworm, eggs on insect diet in 96-well microtiter plates. As to conditions: 120 h, egg and larval mortality after 5 days, read-out: mortality in comparison with untreated controls. The method, then: For evaluating control of tobacco budworm (Heliothis virescens) the test unit consisted of 96-well-microtiter plates containing an insect diet and 15-25 H. virescens eggs.
The compounds were formulated using a solution containing 75% v/v water and 25% v/v DMSO. Different concentrations of formulated compounds were sprayed onto the insect diet at 10 μl, using a custom built micro atomizer, at two replications.
After application, microtiter plates were incubated at about 28+1° C. and about 80+5% relative humidity for 5 days. Egg and larval mortality was then visually assessed.

Assay [2] relates to boll weevil (Anthonomus grandis). Nature of the assay: Action on boll weevil, eggs on insect diet in 96-well microtiter plates. As to conditions: 120 h, egg and larval mortality after 5 days, read-out: mortality in comparison with untreated controls. The procedure:
For evaluating control of boll weevil (Anthonomus grandis) the test unit consisted of 96-well-microtiter plates containing an insect diet and 5-10 A. grandis eggs.
The compounds were formulated using a solution containing 75% (v/v) water and 25% (v/v) DMSO. Different concentrations of formulated compounds were sprayed onto the insect diet at 5 μl, using a custom built micro atomizer, at two replications.
After application, microtiter plates were incubated at about 25+1° C. and about 75+5% relative humidity for 5 days. Egg and larval mortality was then visually assessed.

The test system of assay [3] is Orchid Thrips (Dichromothrips corbetti). Nature of the assay: Action on orchid thrips, floral-immersion technique. As to conditions: adult thrips, 72 hours after treatment, read-out: mortality in comparison with untreated controls. The procedure:
Dichromothrips corbetti adults used for bioassay were obtained from a colony maintained continuously under laboratory conditions. For testing purposes, the test compound is diluted in a 1:1 mixture of acetone:water (vol:vol), plus Kinetic® HV at a rate of 0.01% v/v.
Thrips potency of each compound was evaluated by using a floral-immersion technique. All petals of individual, intact orchid flowers were dipped into treatment solution and allowed to dry in Petri dishes. Treated petals were placed into individual re-sealable plastic along with about 20 adult thrips. All test arenas were held under continuous light and a temperature of about 28° C. for duration of the assay. After 3 days, the numbers of live thrips were counted on each petal. The percent mortality was recorded 72 hours after treatment.

The subject of assay [4] is yellow fever mosquito (Aedes aegypti). Kind of assay: whole plant or invertebrate. The conditions noted are these: 48 h, larval mortality visually assessed after 2 days, read-out: mortality in comparison with untreated controls. The method, then: For evaluating control of yellow fever mosquito (Aedes aegypti) the test unit consisted of 96-well-microtiter plates containing 200 μl of tap water per well and 5-15 freshly hatched A. aegypti larvae.
The active compounds or mixtures were formulated using a solution containing 75% (v/v) water and 25% (v/v) DMSO. Different concentrations of formulated compounds or mixtures were sprayed onto the insect diet at 2.5 μl, using a custom built micro atomizer, at two replications. For experimental mixtures in these tests identical volumes of both mixing partners at the desired concentrations respectively, were mixed together.
After application, microtiter plates were incubated at 28±1° C., 80±5% RH for 2 days. Larval mortality was then visually assessed.

In assay [5] the test system is Diamond Back Moth (Plutella xylostella). Kind of assay: Action on diamond back moth, cabbage leaf dip. As to conditions: foliar, 3rd instar larvae, 72 hours after treatment, read-out: mortality in comparison with untreated controls. The procedure: The active compound is dissolved at the desired concentration in a mixture of 1:1 (v/v) distilled water:acetone. Surfactant (Kinetic® HV) is added at a rate of 0.01% (v/v). The test solution is prepared at the day of use.
Leaves of cabbage were dipped in test solution and air-dried. Treated leaves were placed in petri dishes lined with moist filter paper and inoculated with ten 3rd instar larvae. Mortality was recorded 72 hours after treatment. Feeding damages were also recorded using a scale of 0-100%.

For assay [6], the system named is Southern Armyworm (Spodoptera eridania), 2nd Instar Larvae. Nature of the assay: Action on southern armyworm, sprayed lima bean plants. As to conditions: 96 h, 2nd instar larvae on lima bean, 4 days after treatment, read-out: mortality in comparison with untreated controls. The procedure: The active compounds were formulated by a Tecan liquid handler in 100% cyclohexanone as a 10,000 ppm solution supplied in tubes. The 10,000 ppm solution was serially diluted in 100% cyclohexanone to make interim solutions. These served as stock solutions for which final dilutions were made by the Tecan in 50% acetone:50% water (v/v) into 10 or 20 ml glass vials. A nonionic surfactant (Kinetic®) was included in the solution at a volume of 0.01% (v/v). The vials were then inserted into an automated electrostatic sprayer equipped with an atomizing nozzle for application to plants/insects.
Lima bean plants (variety Sieva) were grown 2 plants to a pot and selected for treatment at the 1st true leaf stage. Test solutions were sprayed onto the foliage by an automated electrostatic plant sprayer equipped with an atomizing spray nozzle. The plants were dried in the sprayer fume hood and then removed from the sprayer. Each pot was placed into perforated plastic bags with a zip closure. About 10 to 11 armyworm larvae were placed into the bag and the bags zipped closed. Test plants were maintained in a growth room at about 25° C. and about 20-40% relative humidity for 4 days, avoiding direct exposure to fluorescent light (24 hour photoperiod) to prevent trapping of heat inside the bags. Mortality and reduced feeding were assessed 4 days after treatment, compared to untreated control plants.

Usually mortality stands for the percentage killed. For `C/N=C(/c1nn(C)c2cc(/C=N/NC(=S)Nc3ccccc3C(C)C)ccc12)N(C)c1ccc(OC(F)(F)F)cc1` [Example C-3, 1-[(E)-[3-[(Z)—N,N′-dimethyl-N-[4-(trifluoromethoxy)phenyl]carbamimidoyl]-1-methyl-indazol-6-yl]methyleneamino]-3-(2-isopropylphenyl)thiourea], the results for the mortality at 800 ppm in assay [1], in assay [2] and in assay [4] were ≥ 75%, ≥ 75% and ≥ 50%, respectively. Besides, the mortality at 500 ppm in assay [3] and in assay [5] was ≥ 75% throughout.
Take `CON=C(Nc1ccc(OC(F)(F)F)cc1)c1nn(C)c2cc(/C=N/N=C3\SC(=O)CN3c3ccccc3C(C)C)ccc12` [Example C-6, 6-[(E)-[(Z)-[3-(2-isopropylphenyl)-5-oxo-thiazolidin-2-ylidene]hydrazono]methyl]-N′-methoxy-1-methyl-N-[4-(trifluoromethoxy)phenyl]indazole-3-carboxamidine]: the mortality at 300 ppm in assay [6] is ≥ 75%. For the same compound, the mortality at 800 ppm in assay [1] was ≥ 75%; in assay [2], ≥ 75%; in assay [4] it was ≥ 50%. Further, the mortality at 500 ppm in assay [3] and in assay [5] was ≥ 75% each time.
For the compound `CC(C)c1ccccc1NC(=S)N/N=C/c1ccc2c(/C(N)=N/c3ccc(OC(F)(F)F)cc3)nsc2c1` [Example C-20, 1-(2-isopropylphenyl)-3-[(E)-[3-[(Z)—N′-[4-(trifluoromethoxy)phenyl]carbamimidoyl]-1,2-benzothiazol-6-yl]methyleneamino]thiourea], the results for the mortality at 800 ppm in assay [1], in assay [2] and in assay [4] were ≥ 75%, ≥ 75% and ≥ 50%, respectively. Further, the mortality at 500 ppm in assay [3] and in assay [5] was ≥ 75% throughout.
As for `CC(C)c1ccccc1N1C(=O)CS/C1=N\N=C\c1ccc2c(C(N)=Nc3ccc(OC(F)(F)F)cc3)nsc2c1` [Example C-21, 6-[(E)-[(Z)-[3-(2-isopropylphenyl)-4-oxo-thiazolidin-2-ylidene]hydrazono]methyl]-N′[4-(trifluoromethoxy)phenyl]-1,2-benzothiazole-3-carboxamidine], in assay [6], the mortality at 300 ppm was ≥ 75%. Also, the mortality at 800 ppm in assay [1] was ≥ 75%; in assay [2], ≥ 75%; in assay [4] it was ≥ 50%. Besides, the mortality at 500 ppm in assay [3] and in assay [5] was ≥ 75% throughout.
Consider `CC(C)c1ccccc1NC(=S)N/N=C/c1ccc2c(/C=N/c3ccc(OC(F)(F)F)cc3)nn(C)c2c1` [Example C-24, 1-(2-isopropylphenyl)-3-[(E)-[1-methyl-3-[(E)-[4-(trifluoromethoxy)phenyl]iminomethyl]indazol-6-yl]methyleneamino]thiourea], for which the values for the mortality at 800 ppm in assay [1] and in assay [4] were ≥ 75% and ≥ 50%, respectively. Besides, the mortality at 500 ppm in assay [5] was ≥ 75%.
For `CC(C)c1ccccc1N1C(=O)CS/C1=N\N=C\c1ccc2c(/C=N/c3ccc(OC(F)(F)F)cc3)nn(C)c2c1` [Example C-25, (2Z)-3-(2-isopropylphenyl)-2-[(E)-[1-methyl-3-[(E)-[4-(trifluoromethoxy)phenyl]iminomethyl]indazol-6-yl]methylenehydrazono]thiazolidin-4-one], the mortality at 800 ppm in assay [1] was ≥ 75%. Further, the mortality at 500 ppm in assay [5] was ≥ 75%.
For the compound `CC(C)c1ccccc1NC(=S)N/N=C/c1ccc2c(C(=N)Nc3ccc(OC(F)(F)F)cc3)nn(C)c2n1` [Example C-26, 1-(2-isopropylphenyl)-3-[(E)-[1-methyl-3-[N-[4-(trifluoromethoxy)phenyl]carbamimidoyl]pyrazolo[3,4-b]pyridin-6-yl]methyleneamino]thiourea], the mortality at 300 ppm in assay [6] was ≥ 75%. In addition, the mortality at 800 ppm in assay [1] was ≥ 75%; in assay [2], ≥ 75%; in assay [4], ≥ 50%. The mortality at 500 ppm in assay [3] and in assay [5] was ≥ 75% throughout.
With `CC(C)c1ccccc1N1C(=O)CS/C1=N\N=C\c1ccc2c(C(=N)Nc3ccc(OC(F)(F)F)cc3)nn(C)c2n1` [Example C-27, 6-[(E)-[(Z)-[3-(2-isopropylphenyl)-4-oxo-thiazolidin-2-ylidene]hydrazono]methyl]-1-methyl-N-[4-(trifluoromethoxy)phenyl]pyrazolo[3,4-b]pyridine-3-carboxamidine], the mortality at 300 ppm in assay [6] was ≥ 75%. In addition, the mortality at 800 ppm in assay [1] is ≥ 75%; in assay [2], ≥ 75%; in assay [4], ≥ 50%. Moreover, the mortality at 500 ppm in assay [3] and in assay [5] was ≥ 75% each time.
As to `CC(C)c1ccccc1N1CCS/C1=N\N=C\c1ccc2c(C(=N)Nc3ccc(OC(F)(F)F)cc3)nn(C)c2c1` [Example C-36, 6-[(E)-[(Z)-[3-(2-isopropylphenyl)thiazolidin-2-ylidene]hydrazono]methyl]-1-methyl-N-[4-(trifluoromethoxy)phenyl]indazole-3-carboxamidine], the mortality at 800 ppm is ≥ 75% in assay [1], ≥ 75% in assay [2] and ≥ 50% in assay [4]. Moreover, the mortality at 500 ppm in assay [3] and in assay [5] was ≥ 75% each time.
Turning to `CC(C)c1ccccc1N1CCCS/C1=N\N=C\c1ccc2c(C(=N)Nc3ccc(OC(F)(F)F)cc3)nn(C)c2c1` [Example C-37, 6-[(E)-[(Z)-[3-(2-isopropylphenyl)-1,3-thiazinan-2-ylidene]hydrazono]methyl]-1-methyl-N-[4-(trifluoromethoxy)phenyl]indazole-3-carboxamidine], the results for the mortality at 800 ppm in assay [1], in assay [2] and in assay [4] were ≥ 75%, ≥ 75% and ≥ 50%, respectively. Moreover, the mortality at 500 ppm in assay [3] and in assay [5] was ≥ 75% in each case.
